From ChEMBL document CHEMBL3886188, “Identification of human T2R receptors that respond to bitter compounds that elicit the bitter taste in compositions, and the use thereof in assays to identify compounds that inhibit (block) bitter taste in compositions and use thereof” (2016)

Biological target: T1, Taste receptor type 2 member 8 (Homo sapiens, UniProt Q9NYW2)
T1 sequence (Q9NYW2 whole entry): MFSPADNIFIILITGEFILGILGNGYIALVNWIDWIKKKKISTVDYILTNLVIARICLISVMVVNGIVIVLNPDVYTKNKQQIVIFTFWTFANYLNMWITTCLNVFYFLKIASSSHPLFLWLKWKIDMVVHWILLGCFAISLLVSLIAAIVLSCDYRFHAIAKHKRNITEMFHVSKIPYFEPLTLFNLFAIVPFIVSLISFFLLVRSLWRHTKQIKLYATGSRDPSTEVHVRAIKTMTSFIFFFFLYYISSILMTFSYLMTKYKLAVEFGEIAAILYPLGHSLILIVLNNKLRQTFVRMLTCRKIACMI
Experiment: Fluorescence Polarization Assays: In another embodiment, Fluorescence Polarization ("FP") based assays may be used to detect and monitor ligand binding. Fluorescence polarization is a versatile laboratory technique for measuring equilibrium binding, nucleic acid hybridization, and enzymatic activity. […] Generally, this technique can be used to measure polarization values of fluorophores from low picomolar to micromolar levels.

- IC50: 1650 nM
SMILES: Cc1noc(C)c1Cn1cc(N2CCCN(Cc3ccccc3)C2=O)cn1
